Experimental data taken from paper PMC9962735, “Synthesis and Cytotoxic Activity of the Derivatives of N-(Purin-6-yl)aminopolymethylene Carboxylic Acids and Related Compounds” (Molecules, 2023).

Columns and labels:
[1] = MTT cytotoxicity assay, A549; format: cell-based, human; conditions: human, read-out: SCI (selective cytotoxicity index)
Source text: (§1) The cytotoxicity of the test compounds was studied using the MTT assay against a number of cell lines: CT-26 murine colon carcinoma, 4T1 murine mammary carcinoma, MDA-MB-231 human breast adenocarcinoma, COLO201 human colorectal adenocarcinoma, HepG2 human hepatocellular carcinoma, A549 human non-small-cell lung carcinoma, SK-BR-3 human breast adenocarcinoma, SNU-1 human gastric carcinoma, Jurkat human acute T-lymphoblastic leukemia, and WI-38 human lung fibroblasts (normal cells). Doxorubicin (Dox) was used as a reference drug. Cells were incubated with test compounds for 72 h.
(§2) Cells were seeded in flat-bottomed 96-well plates at 10,000 cells per well (for A549, SNU-1, WI-38, CT-26, MDA-MB-231, 4T1, and HepG2 cells) or 20,000 cells per well (for SK-BR-3, Jurkat, and COLO201 cells) and cultivated in complete culture mediums (for composition of each medium, see the Supplementary Materials, Table S1) in a CO2 incubator at 37 °C. At the first stage of this study, the test compounds dissolved in DMSO were added to the wells with cells at final concentrations from 1 × 10^–4 to 1 × 10^–10 mol/L (A549, SK-BR-3, SNU-1, Jurkat, and WI-38) or 1 × 10^–3 to 1 × 10^–8 mol/L (CT-26, MDA-MB-231, 4T1, COLO201, and HepG2); DMSO concentration in the wells was finally 1%. A complete cultural medium and DMSO were added to the control wells at the same concentration as in the experimental wells; 0.1% Triton X-100 solution (10 µL) was added to the corresponding wells as a non-specific positive control. After adding the test compounds, the cells were incubated for 72 h in an atmosphere containing 5% CO2. After that, the nutrient medium was removed from each well (in the case of SK-BR-3, Jurkat, and COLO201, plates were pre-centrifuged at 1500 rpm for 6 min). A solution of the commercial anticancer agent Doxorubicin (Dox, Sigma-Aldrich, St. Louis, MO, USA) in DMSO was used as a reference drug. Then, 150 µL of a complete medium with the MTT reagent (PanEco, Moscow, Russia) at a concentration of 0.5 mg/mL was added and incubated for 2 h. Formazan crystals were dissolved in DMSO (200 µL) and the absorbance in the wells was measured at 540 nm and a reference wavelength of 650 nm (Sunrise, Tecan, Groding, Austria). Experiments were performed in three parallel runs. Cell viability after incubation in the presence of test compounds was calculated in relation to cell viability in the control wells according to the Formula (1):Cell viability (%) = (Aexp/Ac) × 100,(1) where Aexp is the optical density of solutions in the wells containing test compounds; Ac is the optical density of solutions in control wells without test compounds. For detailed information on cell viability of various cell lines, see the Supplementary Materials, Figures S21–S26.
(§3) At the second stage of this study, in order to more accurately calculate the CC50 (the half maximal inhibitory concentration), the cytotoxic effect of test compounds was evaluated at concentrations close to CC50 found at the first stage. The study of the cytotoxic activity of each substance towards the cells of each line was carried out in triplicate; the mean value was used to calculate CC50. The CC50 values were determined by non-linear regression analysis using Graph-Pad Prism7.

[2] = system: A549 human non-small-cell lung carcinoma; experiment: MTT cytotoxicity assay, A549; format: cell-based; conditions: Homo sapiens; for CC50: A549, 72 h, A549, 72 h incubation, MTT; for viability at 100 µM: A549, 1 × 10^–4 M, mean ± SD (n = 3)
Source text: as §1, §2, §3

[3] = system: HepG2 human hepatocellular carcinoma; experiment: MTT cytotoxicity assay, HepG2; format: cell-based; conditions: Homo sapiens; for viability at 100 µM: HepG2, 1 × 10^–4 M, mean ± SD (n = 3), read-out: Cell viability; for CC50: HepG2, 72 h incubation, MTT, n = 3
Source text: as §1, §2, §3

[4] = MTT cytotoxicity assay, HepG2; format: cell-based, human; conditions: human; CC50 of WI-38 divided by CC50 of HepG2; read-out: SCI (selective cytotoxicity index)
Source text: as §1, §2, §3

[5] = system: herpes simplex virus type 1 (HSV-1), including acyclovir-resistant HSV-1 strain; set-up: method as in doi:10.1002/ejoc.201900727, doi:10.1515/pac-2019-1214, doi:10.1007/s10593-021-02929-z; conditions: HSV-1 including acyclovir-resistant strain; cited from earlier work
MDA-MB-231 cells = experiment: Cell cycle analysis by flow cytometry (propidium iodide), MDA-MB-231; format: cell-based, human; conditions: 24 h; for Cell proliferation index (%) / Number of cells (%) in cell cycle phase G0/G1 / Number of cells (%) in cell cycle phase G2M / Number of cells (%) in cell cycle phase S: M ± SD (n = 3)
Description: To study the potential cytostatic effect of compound 1d, we chose the method of cell cycle analysis using flow cytometry by DNA staining with propidium iodide.
To analyze possible effects on the cell cycle, we tested three concentrations of compound 1d, which were close to CC50 calculated on the basis of viability assessment data (MTT assay).
Cell cycle analysis was performed by flow cytometry by staining DNA with propidium iodide (PI). For this, cells were seeded into 6-well plates: 2 × 10^5 COLO201 cells per well and 1.2 × 10^5 MDA-MB-231 cells per well. […] The final concentration of DMSO in the culture medium was 0.1%; an equivalent volume was added to the control cells. The plates were incubated for 24 h in a CO2 incubator. Then, cells were detached from the plastic surface using TrypLE, washed with PBS, and fixed with 70% ethanol. Next, the cells were incubated for 1 h in the dark at 4 °C, then sedimented by centrifugation at 184× g for 10 min, and washed twice with PBS. PBS (0.3 mL) containing 0.1% Triton X-100, 1 µg/mL PI, and 0.2 mg/mL RNAse A was added to the pellet, incubated for 30 min at room temperature in the dark, and analyzed on a CytoFlex flow cytometer (Beckman Coulter, Brea, CA, USA).
The cell population in the test sample was found and gated on forward versus side scatter (FSC-A vs. SSC-A). Next, doublets were discriminated and removed via PI signal height versus PI signal area (PI-H vs. PI-A). For cell cycle phases analysis, PI-A was plotted against number of events (number of cells) (PI-A vs. Count).
The flow cytometry data were processed using the Kaluza Analysis 2.1 software (Beckman Coulter, Brea, CA, USA). Percentages of cell populations distributed in the various phases of the cell cycle (sub-G1, G0/G1, S, and G2M) were calculated. The result was considered significant if the coefficient of variation (CV) was less than 6.

[6] = Solubility in aqueous media; format: physicochemical; conditions: result in words
[7] = CC50 of WI-38 divided by CC50 of A549 (Table 1)

Q: Which results are given for `CC1COc2c(ccc(F)c2F)N1C(=O)CCCCCCCNc1ncnc2[nH]cnc12` (centres unmarked) [Compound 1c]?
A: selectivity ratio at 72 h [1, 7]: 1.2; CC50 ([2]; n = 3 (Table 1)): 43 µM; viability at 100 µM [2]: 7 ± 1%; viability at 100 µM [3]: 2 ± 1%; CC50 [3]: 8.5 µM; selectivity ratio at 72 h [4]: 5.9; antiviral activity in vitro against HSV-1 [5]: high antiviral activity

Q: Which selectivity ratio at 72 h [1, 7] does the source give for `CC1COc2c(ccc(F)c2F)N1C(=O)CCCCCCCCCCNc1ncnc2[nH]cnc12` (centres unmarked) [Compound 1d] here?
A: 0.49

Q: And the selectivity ratio at 72 h ([1]; CC50 of WI-38 divided by CC50 of A549 (Table 3))?
A: 1

Q: And the CC50 ([2]; n = 3 (Table 1))?
A: 43 µM

Q: What about the CC50 ([2]; n = 3 (Table 3)) of the same compound?
A: 21 µM

Q: What about the viability at 100 µM [2] of the same compound?
A: 6 ± 1%

Q: And the “Cell proliferation index (%)” value (MDA-MB-231 cells; MDA-MB-231, 10×10–6 M)?
A: 39.08%

Q: What about the “Number of cells (%) in cell cycle phase G0/G1” value (MDA-MB-231 cells; MDA-MB-231, 10×10–6 M) of the same compound?
A: 60.92%

Q: What about the “Number of cells (%) in cell cycle phase G2M” value (MDA-MB-231 cells; MDA-MB-231, 10×10–6 M) of the same compound?
A: 13.74%

Q: What about the “Number of cells (%) in cell cycle phase S” value (MDA-MB-231 cells; MDA-MB-231, 10×10–6 M) of the same compound?
A: 25.33%

Q: What about the “Cell proliferation index (%)” value (MDA-MB-231 cells; MDA-MB-231, 20×10–6 M) of the same compound?
A: 37.57%

Q: What about the “Number of cells (%) in cell cycle phase G0/G1” value (MDA-MB-231 cells; MDA-MB-231, 20×10–6 M) of the same compound?
A: 62.13%

Q: And the “Number of cells (%) in cell cycle phase G2M” value (MDA-MB-231 cells; MDA-MB-231, 20×10–6 M)?
A: 17.05%

Q: And the “Number of cells (%) in cell cycle phase S” value (MDA-MB-231 cells; MDA-MB-231, 20×10–6 M)?
A: 20.52%

Q: What about the “Cell proliferation index (%)” value (MDA-MB-231 cells; MDA-MB-231, 30×10–6 M) of the same compound?
A: 40.63%

Q: And the “Number of cells (%) in cell cycle phase G0/G1” value (MDA-MB-231 cells; MDA-MB-231, 30×10–6 M)?
A: 59.37%

Q: And the “Number of cells (%) in cell cycle phase G2M” value (MDA-MB-231 cells; MDA-MB-231, 30×10–6 M)?
A: 27.49%

Q: What about the “Number of cells (%) in cell cycle phase S” value (MDA-MB-231 cells; MDA-MB-231, 30×10–6 M) of the same compound?
A: 13.13%

Q: What about the “cell cycle arrest phase” value (MDA-MB-231 cells; MDA-MB-231, entire range of concentrations studied) of the same compound?
A: arrest of the cell cycle in the G0/G1 phase

Q: What about the viability at 100 µM [3] of the same compound?
A: 2 ± 1%

Q: And the CC50 [3]?
A: 8.5 µM

Q: What about the selectivity ratio at 72 h [4] of the same compound?
A: 2.5

Q: What about the “solubility in aqueous media” value [6] of the same compound?
A: low solubility in aqueous media
